Test results as given in patent US10251889B2, “Substituted pyrazolo[1,5-a]pyrimidine compounds as Trk kinase inhibitors” (Array BioPharma, Inc., priority 2009, dated 2019).
Like-named read-outs stand apart in the source and are kept apart here.

How the values were obtained:
Format in all cases: biochemical
[1] = molecular target: Jak2 (human Jak2 kinase domain, amino acids 808-1132) (Homo sapiens (Human), UniProt O60674); experiment: Jak2 inhibition assay (Omnia kinase assay); conditions: 1000 nM test compound
Sequence of Jak2 (human Jak2 kinase domain, amino acids 808-1132) (O60674 808-1132): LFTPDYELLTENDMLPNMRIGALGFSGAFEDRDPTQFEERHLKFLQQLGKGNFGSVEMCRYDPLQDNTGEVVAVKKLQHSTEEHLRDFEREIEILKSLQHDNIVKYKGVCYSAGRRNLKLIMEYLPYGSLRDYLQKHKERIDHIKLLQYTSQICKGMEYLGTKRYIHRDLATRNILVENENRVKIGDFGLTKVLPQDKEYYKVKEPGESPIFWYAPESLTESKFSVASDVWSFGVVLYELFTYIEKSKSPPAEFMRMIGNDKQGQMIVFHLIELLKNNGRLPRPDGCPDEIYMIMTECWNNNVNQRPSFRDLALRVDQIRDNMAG

[2] = molecular target: Jak1 (GST-tagged human Jak1 kinase domain, amino acids 866-1154) (Homo sapiens (Human), UniProt P23458); experiment: Jak1 inhibition assay (Omnia kinase assay); conditions: read-out: Jak1 (% inhibition at 1000 nM); Table 2; 1000 nM test compound
Sequence of Jak1 (GST-tagged human Jak1 kinase domain, amino acids 866-1154) (P23458 866-1154): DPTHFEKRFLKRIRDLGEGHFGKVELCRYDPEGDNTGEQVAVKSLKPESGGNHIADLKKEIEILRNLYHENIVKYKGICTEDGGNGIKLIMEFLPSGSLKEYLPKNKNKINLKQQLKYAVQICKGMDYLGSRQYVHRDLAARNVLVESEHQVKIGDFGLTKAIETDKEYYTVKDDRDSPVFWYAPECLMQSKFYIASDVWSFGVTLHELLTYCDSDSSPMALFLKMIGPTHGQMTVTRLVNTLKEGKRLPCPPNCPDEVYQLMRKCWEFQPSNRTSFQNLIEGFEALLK
Description: (§1) The assays described in Examples C, D, E and F for the determination of JAK1, JAK2, JAK3 and Tyk2 kinase activity, respectively, utilized the Omnia® Kinase fluorescence peptide substrate-based technology (Invitrogen). […] The reactions were therefore read at excitation 360 nm and emission was measured at 485 nm every 50 seconds for 45 minutes using a PerkinElmer EnVision Multilabel Plate Reader.
(§2) The final buffer conditions for each of the JAK1, JAK2, JAK3 and Tyk2 assays were as follows: 25 mM HEPES, pH 7.4, 10 mM MgCl2, 0.01% Triton X-100 and 1 mM DTT.
(§3) Compounds were prepared at 50× the final concentration in DMSO by conducting 3-fold serial dilutions from a 500-μM or 1000-μM intermediate dilution to give a 10-point dosing curve having a high dose of 10 or 20 μM. Two-μL aliquots of these were transferred to a fresh plate for a ten-fold intermediate dilution with assay buffer. Five-μL aliquots of the diluted compounds were then transferred to 20-μL of assay mixtures described in Examples C, D, E and F for a final concentration of DMSO of 2%. A standard or reference compound was typically included on each assay plate to validate that plate. For each plate, percent of control (POC) values were calculated for each well according to the following equation:
(§4) where Xmax=Average Uninhibited Controls • Xmin=Average Background IC50's were estimated from the POC's using a standard 4-parameter logistic model:
(§5) where A=Minimum Y (Bottom Asymptote) • B=Maximum Y (Top Asymptote) • C=EC50 • D=Slope Factor • X=Compound Concentration (nM) • Y=POC
(§6) The IC50 is defined as the concentration of inhibitor at which the POC equals 50 for the fitted curve.
Compounds of Formula I were screened for their ability to inhibit Jak1 using the general enzyme inhibition assay method, in which the assay mixture contained 500 μM ATP, 8 μM Omnia® Y12 peptide (Catalog # IVGN KPZ3121C; Invitrogen Corporation, Carlsbad, Calif.) and 5 nM Jak1 in a total volume of 20 μL. […] (catalog # IVGN PV4774).

[3] = molecular target: Jak3 (GST-tagged human Jak3 kinase domain, amino acids 781-1124) (Homo sapiens (Human), UniProt P52333); experiment: Jak3 inhibition assay (Omnia kinase assay); conditions: read-out: Jak3 (% inhibition at 1000 nM); Table 2; 1000 nM test compound
Sequence of Jak3 (GST-tagged human Jak3 kinase domain, amino acids 781-1124) (P52333 781-1124): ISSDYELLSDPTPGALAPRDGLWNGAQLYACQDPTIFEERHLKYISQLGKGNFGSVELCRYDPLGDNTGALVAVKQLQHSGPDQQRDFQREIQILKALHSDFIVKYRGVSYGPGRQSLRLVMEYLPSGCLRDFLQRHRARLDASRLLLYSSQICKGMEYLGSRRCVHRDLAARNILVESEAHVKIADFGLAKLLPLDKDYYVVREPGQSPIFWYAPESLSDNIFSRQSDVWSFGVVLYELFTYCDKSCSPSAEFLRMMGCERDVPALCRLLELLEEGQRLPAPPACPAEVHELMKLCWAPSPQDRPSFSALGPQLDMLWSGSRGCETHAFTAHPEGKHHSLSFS
Description: as §1, §2, §3, §4, §5, §6
Compounds of Formula I were screened for their ability to inhibit Jak3 using the general enzyme inhibition assay method, in which the assay mixture contained 500 μM ATP, 10 μM Omnia® Y7 peptide (Catalog # IVGN KNZ3071C, Invitrogen Corporation, Carlsbad, Calif.) and 1.5 nM Jak3 in a total volume of 20 μL. GST-tagged human Jak3 kinase domain comprising amino acids 781-1124 was purchased from Invitrogen Corporation, Carlsbad, Calif. (catalog # IVGN PV3855).

[4] = molecular target: Tyk2 (human Tyk2 kinase domain, amino acids 886 to 1187) (Homo sapiens (Human), UniProt P29597); experiment: Tyk2 inhibition assay (Omnia kinase assay); conditions: read-out: Tyk2 (% inhibition at 1000 nM); Table 2; 1000 nM test compound
Sequence of Tyk2 (human Tyk2 kinase domain, amino acids 886 to 1187) (P29597 886-1187): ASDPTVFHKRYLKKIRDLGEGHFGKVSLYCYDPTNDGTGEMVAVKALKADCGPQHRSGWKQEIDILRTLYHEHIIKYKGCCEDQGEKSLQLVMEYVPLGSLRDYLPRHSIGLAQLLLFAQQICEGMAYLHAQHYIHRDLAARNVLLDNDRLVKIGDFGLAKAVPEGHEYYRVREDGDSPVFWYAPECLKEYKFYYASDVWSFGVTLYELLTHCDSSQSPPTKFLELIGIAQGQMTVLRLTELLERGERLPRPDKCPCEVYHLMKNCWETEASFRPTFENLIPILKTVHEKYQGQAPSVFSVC
Description: as §1, §2, §3, §4, §5, §6
Compounds of Formula I were screened for their ability to inhibit Tyk2 using the general enzyme inhibition assay method, in which the assay mixture contained 500 μM ATP, 8 μM Omnia® Y12 peptide (Catalog # IVGN KPZ3121C; Invitrogen Corporation, Carlsbad, Calif.) and 1 nM Tyk2 in a total volume of 20 μL. Human Tyk2 kinase domain, comprising amino acids 886 to 1187 with 10 additional histidine residues (histidine tag) on the carboxy terminus, was expressed and purified from baculovirus in-house at Array BioPharma Inc. (Boulder, Colo.). The histidine tag was cleaved after purification using standard conditions.

[5] = read-out: Jak2 (% inhibition at 1000 nM), Table 2
[6] = read-out: Jak2 Enzyme (% inhibition at 1000 nM), Table 1

inhibition at 1 µM [1, 5] [%]	inhibition at 1 µM [1, 6] [%]	inhibition at 1 µM [2] [%]	inhibition at 1 µM [3] [%]	inhibition at 1 µM [4] [%]	SMILES
13	9.4	8.6	0.8	13.8	O=C(NC1CC1)c1cnn2ccc(N3CCC[C@@H]3c3cncc(F)c3)nc12 [Example 52, (R)—N-cyclopropyl-5-(2-(5-fluoropyridin-3-yl)pyrrolidin-1-yl)pyrazolo[1,5-a]pyrimidine-3-carboxamide]
42.1	34.9	20.3	8.3	14.8	CC1(NC(=O)c2cnn3ccc(N4CCC[C@@H]4c4cncc(F)c4)nc23)CC1 [Example 91, (R)-5-(2-(5-fluoropyridin-3-yl)pyrrolidin-1-yl)-N-(1-methylcyclopropyl)pyrazolo[1,5-a]pyrimidine-3-carboxamide]
42.2	34.7	19.7	10.6	17.2	CC(C)NC(=O)c1cnn2ccc(N3CCC[C@@H]3c3cncc(F)c3)nc12 [Example 93, (R)-5-(2-(5-fluoropyridin-3-yl)pyrrolidin-1-yl)-N-isopropylpyrazolo[1,5-a]pyrimidine-3-carboxamide]
21	8	8.2	9.7	14.8	O=C(NCC1CC1)c1cnn2ccc(N3CCC[C@@H]3c3cncc(F)c3)nc12 [Example 106, (R)-N-(cyclopropylmethyl)-5-(2-(5-fluoropyridin-3-yl)pyrrolidin-1-yl)pyrazolo[1,5-a]pyrimidine-3-carboxamide]
15.6	5	10.9	8.5	11.4	CNC(=O)c1cnn2ccc(N3CCC[C@@H]3c3cncc(F)c3)nc12 [Example 114, (R)-5-(2-(5-fluoropyridin-3-yl)pyrrolidin-1-yl)-N-methylpyrazolo[1,5-a]pyrimidine-3-carboxamide]
49.1	38.8	22	8.9	14.4	C[C@@H](NC(=O)c1cnn2ccc(N3CCC[C@@H]3c3cncc(F)c3)nc12)C1CC1 [Example 123, N-((R)-1-cyclopropylethyl)-5-((R)-2-(5-fluoropyridin-3-yl)pyrrolidin-1-yl)pyrazolo[1,5-a]pyrimidine-3-carboxamide]
72.3	53.3	36.4	7.2	16.2	C[C@H](NC(=O)c1cnn2ccc(N3CCC[C@@H]3c3cncc(F)c3)nc12)C1CC1 [Example 124, N-((S)-1-cyclopropylethyl)-5-((R)-2-(5-fluoropyridin-3-yl)pyrrolidin-1-yl)pyrazolo[1,5-a]pyrimidine-3-carboxamide]
	73.1				C[C@@H](NC(=O)c1cnn2ccc(N3CCC[C@@H]3c3cc(F)cn(C)c3=O)nc12)C1CC1 [Example 235, N-((R)-1-cyclopropylethyl)-5-((R)-2-(5-fluoro-1-methyl-2-oxo-1,2-dihydropyridin-3-yl)pyrrolidin-1-yl)pyrazolo[1,5-a]pyrimidine-3-carboxamide]
	69.1				C[C@H](NC(=O)c1cnn2ccc(N3CCC[C@@H]3c3cc(F)cn(C)c3=O)nc12)C1CC1 [Example 236, N-((S)-1-cyclopropylethyl)-5-((R)-2-(5-fluoro-1-methyl-2-oxo-1,2-dihydropyridin-3-yl)pyrrolidin-1-yl)pyrazolo[1,5-a]pyrimidine-3-carboxamide]

The next lines start with the compound.

SMILES	inhibition at 1 µM [1, 5] [%]	inhibition at 1 µM [1, 6] [%]	inhibition at 1 µM [2] [%]	inhibition at 1 µM [3] [%]	inhibition at 1 µM [4] [%]
NC(=O)c1cnn2ccc(N3CCC[C@@H]3c3cc(F)ccc3F)nc12 [Example 30, (R)-5-(2-(2,5-difluorophenyl)pyrrolidin-1-yl)pyrazolo[1,5-a]pyrimidine-3-carboxamide]	30.4	25.7	13.4	2.9	11.3
O=C(NC1(C(F)(F)F)CC1)c1cnn2ccc(N3CCC[C@@H]3c3cncc(F)c3)nc12 [Example 98, (R)-5-(2-(5-fluoropyridin-3-yl)pyrrolidin-1-yl)-N-(1-(trifluoromethyl)cyclopropyl)pyrazolo[1,5-a]pyrimidine-3-carboxamide]	27.8	23.7	8.8	5.5	9.2
COc1ncc(F)cc1[C@H]1CCCN1c1ccn2ncc(C(=O)N[C@H]3CC[C@H](O)CC3)c2n1 [Example 140, 5-((R)-2-(5-fluoro-2-methoxypyridin-3-yl)pyrrolidin-1-yl)-N-((trans)-4-hydroxycyclohexyl)pyrazolo[1,5-a]pyrimidine-3-carboxamide]	98.5	90.1	64.2	20.2	34.8
Cc1ncc(F)cc1[C@H]1CCCN1c1ccn2ncc(C(=O)NC3(C)CC3)c2n1 [Example 190, (R)-5-(2-(5-fluoro-2-methylpyridin-3-yl)pyrrolidin-1-yl)-N-(1-methylcyclopropyl)pyrazolo[1,5-a]pyrimidine-3-carboxamide]	33.9	28.4	14.3	7.2	13.4
Cc1ncc(F)cc1[C@H]1CCCN1c1ccn2ncc(C(=O)N[C@H]3CC[C@H](O)CC3)c2n1 [Example 194, 5-((R)-2-(5-fluoro-2-methylpyridin-3-yl)pyrrolidin-1-yl)-N-((trans)-4-hydroxycyclohexyl)pyrazolo[1,5-a]pyrimidine-3-carboxamide]	37.6	31.2	7.4	2.6	8.1
Cn1cc(F)cc([C@H]2CCCN2c2ccn3ncc(C(=O)N[C@@H]4CCCC[C@H]4O)c3n2)c1=O [Example 234, 5-((R)-2-(5-fluoro-1-methyl-2-oxo-1,2-dihydropyridin-3-yl)pyrrolidin-1-yl)-N-((1R,2R)-2-hydroxycyclohexyl)pyrazolo[1,5-a]pyrimidine-3-carboxamide]		5.3			
Cn1cc(F)cc([C@H]2CCCN2c2ccn3ncc(C(=O)NC4(C)CC4)c3n2)c1=O [Example 237, (R)-5-(2-(5-fluoro-1-methyl-2-oxo-1,2-dihydropyridin-3-yl)pyrrolidin-1-yl)-N-(1-methylcyclopropyl)pyrazolo[1,5-a]pyrimidine-3-carboxamide]		51.9			
Cn1cc(F)cc([C@H]2CCCN2c2ccn3ncc(C(=O)N[C@H]4CC[C@H](O)CC4)c3n2)c1=O [Example 238, 5-((R)-2-(5-fluoro-1-methyl-2-oxo-1,2-dihydropyridin-3-yl)pyrrolidin-1-yl)-N-((trans)-4-hydroxycyclohexyl)pyrazolo[1,5-a]pyrimidine-3-carboxamide]		58.9			
Cn1cc(F)cc([C@H]2CCCN2c2ccn3ncc(C(=O)Nc4ccc(F)cn4)c3n2)c1=O [Example 239, (R)-5-(2-(5-fluoro-1-methyl-2-oxo-1,2-dihydropyridin-3-yl)pyrrolidin-1-yl)-N-(5-fluoropyridin-2-yl)pyrazolo[1,5-a]pyrimidine-3-carboxamide]		15.5			
